Data as given in ChEMBL document CHEMBL1121587, “Synthesis of some new S-alkylated derivatives of 5-mercapto-2'-deoxyuridine as potential antiviral agents” (1980).

Test system: HeLa
Test: Compound was evaluated for antiviral activity against Herpes simplex type 1 in HeLa TK- cells at 100 uM concentration
Format: functional, Homo sapiens

| Compound | Virus titer [pfu/ml] |
| --- | --- |
| C=CCSc1cn(O[C@H]2CC(O)[C@@H](CO)O2)c(=O)[nH]c1=O (stereo not given in full) | 5300000 |
| O=c1[nH]c(=O)n(O[C@H]2CC(O)[C@@H](CO)O2)cc1SCCO (stereo not given in full) | 38000000 |
| CSc1cn(O[C@H]2CC(O)[C@@H](CO)O2)c(=O)[nH]c1=O (stereo not given in full) | 5200000 |
| C#CSc1cnc(O)nc1O | 37000000 |
| C=CCSc1cnc(O)nc1O | 65000000 |
